{"source": "patent US7820865B2", "about": "“Photolatent systems” (Ciba Corporation, priority 2005, dated 2010)", "data": [{"units": {"melting point": "°C"}, "values": [{"smiles": "CCOCC(=O)c1cc(C(C)C)c(O)c(C(C)C)c1", "melting point": "97 to 98"}, {"smiles": "COc1cc(C=O)ccc1OCC(=O)c1cc(C(C)(C)C)c(O)c(C(C)(C)C)c1", "note": "[Compound 101, 4-[2-(3,5-di-tert-butyl-4-hydroxyphenyl)-2-oxo-ethoxy]-3-methoxy-benzaldehyde]", "melting point": "99 to 100"}, {"smiles": "COc1cc(C=O)ccc1OCC(=O)c1cc(C2CCCCC2)c(O)c(C2CCCCC2)c1", "note": "[Compound 103, 4-[2-(3,5-di-cyclohexyl-4-hydroxyphenyl)-2-oxo-ethoxy]-3-methoxy-benzaldehyde]", "melting point": "163 to 164"}, {"smiles": "CC(C)(C)c1cc(C(=O)COc2ccc(Cl)cc2Oc2ccc(Cl)cc2Cl)cc(C(C)(C)C)c1O", "note": "[Compound 104, 2-[4-chloro-2-(2,4-dichloro-phenoxy)-phenoxy]-1-(3,5-di-tert-butyl-4-hydroxyphenyl)-ethanone]", "melting point": "111 to 114"}, {"smiles": "Cc1ccc(OCC(=O)c2cc(C(C)C)c(O)c(C(C)C)c2)cc1", "note": "[Compound 105, 1-(4-hydroxy-3,5-di-isopropylphenyl)-2-p-tolyloxy-ethanone]", "melting point": "124 to 125"}, {"smiles": "CCC(C)(C)c1cc(C(=O)COc2ccc(C=O)cc2OC)cc(C(C)(C)CC)c1O", "note": "[Compound 107, 4-{2-[3,5-bis(1,1-dimethyl-propyl)-4-hydroxy-phenyl]-2-oxo-ethoxy}-3-methoxy-benzaldehyde]", "melting point": "106 to 107"}, {"smiles": "CC(C)=CCC/C(C)=C/COCC(=O)c1cc(C(C)C)c(O)c(C(C)C)c1", "note": "[Compound 108, 2-[(E)-3,7-dimethyl-octa-2,6-dienyloxy]-1-(4-hydroxy-3,5-di-isopropyl-phenyl)-ethanone]", "melting point": "70 to 71"}, {"smiles": "CC(C)=CCCC(C)CCOCC(=O)c1cc(C(C)C)c(O)c(C(C)C)c1", "note": "(centres unmarked) [Compound 109, 2-(3,7-dimethyl-oct-6-enyloxy]-1-(4-hydroxy-3,5-di-isopropyl-phenyl)-ethanone]", "melting point": "37 to 39"}, {"smiles": "CC(C)c1cc(C(=O)CO[C@@H]2C[C@H](C)CC[C@H]2C(C)C)cc(C(C)C)c1O", "note": "[Compound 110, 1-(4-hydroxy-3,5-di-isopropylphenyl)-2-[(1R,2S,5R)-2-isopropyl-5-methyl-cyclohexyloxy]-ethanone]", "melting point": "83 to 84"}, {"smiles": "CCOCC(=O)c1cc(C(C)(C)C)c(O)c(C(C)(C)C)c1", "note": "[Compound 113, 2-ethoxy-1-(4-hydroxy-3,5-di-tert-butylphenyl)-ethanone]", "melting point": "73 to 75"}, {"smiles": "CCOC(C)C(=O)c1cc(C(C)(C)C)c(O)c(C(C)(C)C)c1", "note": "(centres unmarked) [Compound 115, 1-(3,5-di-tert-butyl-4-hydroxyphenyl)-2-ethoxy-propan-1-one]", "melting point": 64}, {"smiles": "CC(C)=CCC/C(C)=C/COCC(=O)c1cc(C(C)(C)C)c(O)c(C(C)(C)C)c1", "note": "[Compound 116, 1-(3,5-di-tert-butyl-4-hydroxyphenyl)-2-[(E)-3,7-dimethyl-octa-2,6-dienyloxy]-ethanone]", "melting point": 50}, {"smiles": "CC(C)c1cc(C(=O)CI)cc(C(C)C)c1O", "note": "[Compound 201, 1-(4-hydroxy-3,5-di-isopropylphenyl)-2-iodo-ethanone]", "melting point": "127 to 128"}, {"smiles": "CC(C)(C)c1cc(C(=O)CI)cc(C(C)(C)C)c1O", "note": "[Compound 202, 1-(4-hydroxy-3,5-di-tert-butylphenyl)-2-iodo-ethanone]", "melting point": "88 to 89"}, {"smiles": "O=C(CI)c1cc(C2CCCCC2)c(O)c(C2CCCCC2)c1", "note": "[Compound 203, 1-(4-hydroxy-3,5-di-cyclohexyphenyl)-2-iodo-ethanone]", "melting point": "183 to 185"}, {"smiles": "CCC(C)(C)c1cc(C(=O)CI)cc(C(C)(C)CC)c1O", "note": "[Compound 204, 1-(3,5-bis(1,1-dimethylpropyl)-4-hydroxyphenyl)-2-iodo-ethanone]", "melting point": "76 to 77"}, {"smiles": "CC(I)C(=O)c1cc(C(C)(C)C)c(O)c(C(C)(C)C)c1", "note": "(centres unmarked) [Compound 205, 1-(4-hydroxy-3,5-tert-butylphenyl)-2-iodo-propane-1-one]", "melting point": 141}]}]}
